Source: PMC3686551 (Tuberculosis (Edinburgh, Scotland), 2013)

Molecular target: Mtb FtsZ (Mycobacterium tuberculosis, UniProt P9WN95)
Assay: FtsZ polymerization inhibition
Assay type: biochemical

Mtb FtsZ, sequence (P9WN95 whole entry): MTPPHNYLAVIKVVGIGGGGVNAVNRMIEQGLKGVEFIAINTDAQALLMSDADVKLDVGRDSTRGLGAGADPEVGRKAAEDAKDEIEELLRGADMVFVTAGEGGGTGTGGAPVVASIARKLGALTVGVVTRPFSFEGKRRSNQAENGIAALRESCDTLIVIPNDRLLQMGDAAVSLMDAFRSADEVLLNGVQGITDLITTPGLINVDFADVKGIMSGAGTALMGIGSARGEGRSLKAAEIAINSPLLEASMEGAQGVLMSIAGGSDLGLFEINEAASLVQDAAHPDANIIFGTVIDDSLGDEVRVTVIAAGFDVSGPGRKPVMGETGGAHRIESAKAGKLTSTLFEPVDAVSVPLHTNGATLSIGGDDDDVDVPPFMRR

CCCOc1ccc(N(C)c2cc(C)nc3ccc(Cl)cc23)cc1 [compound 3]
IC50: > 100 µM
